Source: US10881729B2, “Vaccine adjuvant compositions” (CHILDREN'S MEDICAL CENTER CORPORATION, priority 2014, dated 2021)

Legend:
[1] = cited from earlier work
newborn MoDCs = assay: TNF-α ELISA of supernatants of stimulated newborn MoDCs; type: cell-based, human; details: for TNF production in response to single TLR agonist, newborn compared to adult MoDCs: newborn vs adult MoDCs, FIG. 2
Experimental: Isolated monocytes were seeded in 75 cm^2 tissue culture dishes for 5 days at 37° C. in a humidified incubator at 5% CO2 with 10^6 cells/ml medium. Medium consisted of RPMI 1640 medium with L-glutamine (GIBCO—LIFE TECHNOLOGIES, Carlsbad, Calif., USA) supplemented with 1% Penicillin-Streptomycin-Glutamine (PSG) (Invitrogen—Life Technologies, Carlsbad, Calif., USA) and 10% AP. This was supplemented with recombinant human (rh) IL-4 and rhGM-CSF (50 ng/ml and 100 ng/ml, respectively; R&D Systems, Minneapolis, Minn., USA). Additional fresh media and cytokines were provided on day 3 of incubation.
After 5 days, immature MoDCs were harvested by gently pipetting only the loosely adherent fraction and re-plated (10^5 cells/well) in 96-well U-bottom plates in the presence or absence of TLRAs, and/or CLRAs, and/or sterile DPBS. This MoDC array was then incubated for 18-24 hours at 37° C. in a humidified incubator at 5% CO2. After this stimulation MoDCs were harvested and processed for further functional assays. (FIG. 2).
Supernatants from MoDCs (GCI-DCs) stimulated for 18 hours in a humidified incubator (37° C., 5% CO2) with TLRAs, and/or CLRAs were analyzed for TNF-α production. For this, a human TNF enzyme-linked immunosorbent assay (ELISA) kit was used, and assay was performed according to manufacturer's instruction. (BD Biosciences, BD Biosciences, San Jose, Calif., USA). Results were read on a Versamax microplate reader with SoftMax Pro Version 5 (both from Molecular Devices, Sunnyville, Calif., USA).
The inventors further evaluated the ability of these two combinations of agonists to activate newborn MoDCs by establishing concentration-response curves and by investigating whether the enhancement in TNF secretion can be observed with similar agonists that activate the same receptors. In addition, the concentration-response curves were used to mathematically assess whether the observed enhancement by combining agonists is equal to the sum of the effects observed with individual agonists (i.e., was additive) or if these agonists activate the newborn cells synergistically. A modification of the Loewe definition of additivity was applied to determine whether the agonists act synergistically (D<1), additively (D=1) or antagonistically (D>1), where D=[Ac]/[Ae]+[Bc]/[Be], and [Ac] and [Bc] are the concentrations of compound A and B used in the dual (combined) stimulation and [Ae] and [Be] are the concentrations of A and B that induce an equal amount of TNF secretion alone.

newborn and adult MoDCs = assay: Gene expression by quantitative RT-PCR array, MPLA-stimulated newborn versus adult MoDCs; type: cell-based, human
Experimental: Total ribonucleic acid (RNA) of newborn and adult MoDCs (GCI-DCs and TC-DCs) was isolated with the miRNeasy kit, according to manufacturer's instructions (QIAGEN®, Inc., Valencia, Calif., USA) Total RNA from both un-stimulated cells and cells stimulated with 1 μg/ml MPLA was isolated. RNA quality was analyzed for quality and quantity by using a NanoDrop 1000 spectrophotometer (Thermo Scientific, Wilmington, Del., USA). Complementary deoxyribonucleic acid (cDNA) was prepared from total RNA from each sample with a miScript II RT Kit, according to manufacturer's instructions (QIAGEN®, Inc., Valencia, Calif., USA). cDNA was quantified on a PAHS-052Z plate (QIAGEN®, Inc., Valencia, Calif., USA). Quantitative real time-polymerase chain reaction (RT-PCR) was run on a 7300 real time PCR system (APPLIED BIOSYSTEMS®—Life Technologies, Life Technologies, Carlsbad, Calif., USA).

Compound: CCOCc1nc2c(N)nc3ccccc3c2[nH]1 [CL097, 2-(ethoxymethyl)-1 H-imidazo[4,5-c]quinolin-4-amine]
- water solubility [1]: highly water-soluble

Compound: Pam3Cys
- TNF production in response to single TLR agonist, newborn compared to adult MoDCs (newborn MoDCs): less TNF

Compound: Polyinosinic:polycytidylic acid [Poly I:C]
- TNF production in response to single TLR agonist, newborn compared to adult MoDCs (newborn MoDCs): less TNF

Compound: glycopyranosyl lipid A [GLA]
- synergy in TNF production with the partner agonist named in the sentence (newborn MoDCs; newborn MoDCs, VTX-294 for R848 (with TDB), GLA for MPLA (with Zymosan), BGP for Zymosan, Zymosan with MPLA or GLA): also present

Compound: monophosphoryl lipid A [MPLA]
- TNF production in response to single TLR agonist, newborn compared to adult MoDCs (newborn MoDCs): less TNF
- TNF gene expression, adults compared to newborns (newborn and adult MoDCs; MPLA 1 μg/ml, 24 hours): 2 fold
- IL-6 and IL-10, newborn MoDCs compared to adult MoDCs (newborn and adult MoDCs; MPLA treatment, FIG. 1): more
- expression levels of IRF7 and IRAK1, adult MoDCs compared to newborn (newborn and adult MoDCs; MPLA treatment, FIG. 1): higher
- IL6 and CXCL-8 (IL8) gene expression, newborn MoDCs compared to adult MoDCs (newborn and adult MoDCs; after treatment with MPLA): greater
- expression of IRF7, IRAK1 and NFKB1, adult MoDCs compared to newborn (newborn and adult MoDCs; after treatment with MPLA): greater
